# Biological target: bovine cardiac myosin (Bos taurus, UniProt Q9BE39)
# Experiment: Myosin activation assay (PK/LDH-coupled ATPase, bovine cardiac myofibrils)
# Assay type: biochemical
# Conditions: AC20 = concentration at which total response is increased by twenty percent
# How it was run: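 Values are the concentrations raising the ATPase rate by 20% or 50% over DMSO, from 10-point dose responses fitted with four parameters. Rate is NADH loss at 340 nm via PK/LDH coupling, read 15 min at room temperature, in pH 6.8 PIPES with 50 μM ATP. Bovine cardiac myofibrils were held at pCa ~6 or pCa 10.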
# Chain of bovine cardiac myosin (Q9BE39 whole entry): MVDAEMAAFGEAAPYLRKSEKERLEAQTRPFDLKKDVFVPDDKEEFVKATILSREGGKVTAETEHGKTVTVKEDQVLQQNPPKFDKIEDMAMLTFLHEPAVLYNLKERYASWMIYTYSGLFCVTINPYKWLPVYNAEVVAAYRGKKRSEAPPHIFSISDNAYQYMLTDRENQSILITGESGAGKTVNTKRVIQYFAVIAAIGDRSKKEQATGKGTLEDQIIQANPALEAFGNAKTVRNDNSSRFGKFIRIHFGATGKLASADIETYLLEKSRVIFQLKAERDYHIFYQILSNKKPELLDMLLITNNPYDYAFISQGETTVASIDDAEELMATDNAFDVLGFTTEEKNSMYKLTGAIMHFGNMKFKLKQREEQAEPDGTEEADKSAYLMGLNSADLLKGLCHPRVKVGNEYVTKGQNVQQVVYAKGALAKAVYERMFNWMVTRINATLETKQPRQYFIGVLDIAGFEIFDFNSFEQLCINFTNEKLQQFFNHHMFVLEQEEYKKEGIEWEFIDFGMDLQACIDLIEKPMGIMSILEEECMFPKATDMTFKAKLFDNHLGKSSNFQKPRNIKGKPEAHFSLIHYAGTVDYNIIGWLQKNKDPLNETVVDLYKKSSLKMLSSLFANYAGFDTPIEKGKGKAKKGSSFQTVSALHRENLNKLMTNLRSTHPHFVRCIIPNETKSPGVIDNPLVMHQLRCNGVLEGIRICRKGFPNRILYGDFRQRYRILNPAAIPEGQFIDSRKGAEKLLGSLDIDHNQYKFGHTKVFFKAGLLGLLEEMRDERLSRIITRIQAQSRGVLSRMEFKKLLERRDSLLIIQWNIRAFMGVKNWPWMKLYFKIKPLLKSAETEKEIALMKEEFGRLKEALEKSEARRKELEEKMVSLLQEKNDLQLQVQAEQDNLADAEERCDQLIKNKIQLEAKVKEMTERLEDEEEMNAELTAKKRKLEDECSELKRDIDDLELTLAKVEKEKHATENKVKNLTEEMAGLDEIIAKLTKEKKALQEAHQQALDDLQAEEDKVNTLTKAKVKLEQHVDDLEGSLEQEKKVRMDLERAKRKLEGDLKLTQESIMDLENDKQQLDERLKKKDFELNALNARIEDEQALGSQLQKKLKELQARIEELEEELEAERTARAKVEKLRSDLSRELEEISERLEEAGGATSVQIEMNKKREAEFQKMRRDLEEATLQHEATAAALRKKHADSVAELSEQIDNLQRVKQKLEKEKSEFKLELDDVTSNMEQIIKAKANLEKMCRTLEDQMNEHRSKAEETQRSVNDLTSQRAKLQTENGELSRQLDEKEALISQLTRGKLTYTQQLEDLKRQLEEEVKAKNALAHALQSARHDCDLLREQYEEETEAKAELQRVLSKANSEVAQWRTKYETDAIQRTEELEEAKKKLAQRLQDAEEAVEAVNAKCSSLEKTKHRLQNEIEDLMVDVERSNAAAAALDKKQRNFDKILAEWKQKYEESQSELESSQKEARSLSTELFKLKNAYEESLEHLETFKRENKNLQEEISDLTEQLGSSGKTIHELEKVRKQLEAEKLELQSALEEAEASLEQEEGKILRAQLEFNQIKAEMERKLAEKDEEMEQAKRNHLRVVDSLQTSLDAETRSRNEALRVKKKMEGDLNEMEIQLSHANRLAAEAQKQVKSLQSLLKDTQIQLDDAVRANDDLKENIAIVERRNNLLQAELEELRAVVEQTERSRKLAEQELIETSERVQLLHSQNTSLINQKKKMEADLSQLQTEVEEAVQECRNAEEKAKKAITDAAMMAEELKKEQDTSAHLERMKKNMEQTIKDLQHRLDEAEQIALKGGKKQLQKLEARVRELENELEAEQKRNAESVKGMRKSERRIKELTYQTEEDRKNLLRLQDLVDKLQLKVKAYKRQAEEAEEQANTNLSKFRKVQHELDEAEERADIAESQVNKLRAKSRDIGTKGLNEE
# Chain of bovine cardiac myosin (P85100 whole entry partner): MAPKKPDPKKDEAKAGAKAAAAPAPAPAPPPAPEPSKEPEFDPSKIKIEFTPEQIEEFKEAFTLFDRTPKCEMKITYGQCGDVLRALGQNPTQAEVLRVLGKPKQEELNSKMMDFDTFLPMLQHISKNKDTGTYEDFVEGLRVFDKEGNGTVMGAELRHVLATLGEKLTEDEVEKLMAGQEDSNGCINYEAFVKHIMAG
# Chain of bovine cardiac myosin (Q3SZE5 whole entry partner): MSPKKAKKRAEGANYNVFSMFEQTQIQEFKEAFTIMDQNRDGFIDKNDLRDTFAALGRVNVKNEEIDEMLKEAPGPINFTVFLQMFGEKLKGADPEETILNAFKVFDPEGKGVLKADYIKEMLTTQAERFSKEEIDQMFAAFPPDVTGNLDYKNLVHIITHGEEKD
row,SMILES,Myosin Activation (AC20)
1,"O=C(Nc1ccnnc1)N1CCC(C(F)(F)S(=O)(=O)c2cc(OC(F)(F)F)ccc2Cl)CC1 [Compound 74, 4-(((2-chloro-5-(trifluoromethoxy)phenyl)sulfonyl)difluoromethyl)-N-(pyridazin-4-yl)piperidine-1-carboxamide]",+++ (+++ represents myosin activation value AC20 < 2 μM)
2,"CCn1nccc1S(=O)(=O)C(F)(F)C1CCN(C(=O)Nc2ccnnc2)CC1 [Compound 85, 4-(((1-ethyl-1H-pyrazol-5-yl)sulfonyl)difluoromethyl)-N-(pyridazin-4-yl)piperidine-1-carboxamide]",+ (+ represents myosin activation value AC20 > 5 μM)
3,"COc1ncccc1S(=O)(=O)C(C)(C)C1CCN(C(=O)Nc2ccnnc2)CC1 [Compound 190, 4-(2-((2-methoxypyridin-3-yl)sulfonyl)propan-2-yl)-N-(pyridazin-4-yl)piperidine-1-carboxamide]",++ (++ represents myosin activation value AC20 from 2 μM-5 μM)
4,"CC(C)(C1CCN(C(=O)Nc2ccc(F)nc2)CC1)S(=O)(=O)c1ccc(C(F)(F)F)nc1 [Compound 104, N-(6-fluoropyridin-3-yl)-4-(2-((6-(trifluoromethyl)pyridin-3-yl)sulfonyl)propan-2-yl)piperidine-1-carboxamide]",+ (+ represents myosin activation value AC20 > 5 μM)
5,"CN(C(=O)N1CCC(C(C)(C)S(=O)(=O)c2cccc(F)c2)CC1)c1ccncc1 [Compound 219, 4-(2-((3-fluorophenyl)sulfonyl)propan-2-yl)-N-methyl-N-(pyridin-4-yl)piperidine-1-carboxamide]",+ (+ represents myosin activation value AC20 > 5 μM)
6,"CC(F)(C1CCN(C(=O)Nc2ccnnc2)CC1)S(=O)(=O)c1ccc(OC(F)F)nc1 (centres unmarked) [Compound 14, 4-(1-((6-(Difluoromethoxy)pyridin-3-yl)sulfonyl)-1-fluoroethyl)-N-(pyridazin-4-yl)piperidine-1-carboxamide]",+++ (+++ represents myosin activation value AC20 < 2 μM)
7,"CC(F)(C1CCN(C(=O)Nc2ccnc(F)c2)CC1)S(=O)(=O)c1ccc(C(F)(F)F)cc1 (centres unmarked) [Compound 243, 4-(1-fluoro-1-((4-(trifluoromethyl)phenyl)sulfonyl)ethyl)-N-(2-fluoropyridin-4-yl)piperidine-1-carboxamide]",++ (++ represents myosin activation value AC20 from 2 μM-5 μM)
8,"Cn1cc(S(=O)(=O)[C@](C)(F)C2CCN(C(=O)Nc3ccc(F)nc3)CC2)c(C(F)F)n1 [Compound 257, (S)-4-(1-((3-(difluoromethyl)-1-methyl-1H-pyrazol-4-yl)sulfonyl)-1-fluoroethyl)-N-(6-fluoropyridin-3-yl)piperidine-1-carboxamide]",+ (+ represents myosin activation value AC20 > 5 μM)
9,"O=C(Nc1ccnnc1)N1CCC(C(F)(F)S(=O)(=O)c2cccc3c2COC3)CC1 [Compound 71, 4-(((1,3-dihydroisobenzofuran-4-yl)sulfonyl)difluoromethyl)-N-(pyridazin-4-yl)piperidine-1-carboxamide]",++ (++ represents myosin activation value AC20 from 2 μM-5 μM)
10,"Cn1cc(S(=O)(=O)C(F)(F)C2CCN(C(=O)Nc3ccnc(F)c3)CC2)c(C(F)F)n1 [Compound 79, 4-(((3-(difluoromethyl)-1-methyl-1H-pyrazol-4-yl)sulfonyl)difluoromethyl)-N-(2-fluoropyridin-4-yl)piperidine-1-carboxamide]",+ (+ represents myosin activation value AC20 > 5 μM)
11,"CC(C)(C1CCN(C(=O)Nc2ccnnc2)CC1)S(=O)(=O)c1ccccc1Cl [Compound 197, 4-(2-((2-chlorophenyl)sulfonyl)propan-2-yl)-N-(pyridazin-4-yl)piperidine-1-carboxamide]",+++ (+++ represents myosin activation value AC20 < 2 μM)
12,"Cn1cc(S(=O)(=O)C(C)(C)C2CCN(C(=O)Nc3ccncc3)CC2)cn1 [Compound 198, 4-(2-((1-methyl-1H-pyrazol-4-yl)sulfonyl)propan-2-yl)-N-(pyridin-4-yl)piperidine-1-carboxamide]",+ (+ represents myosin activation value AC20 > 5 μM)
13,"Cn1nccc1S(=O)(=O)C(C)(C)C1CCN(C(=O)Nc2cnns2)CC1 [Compound 193, 4-(2-((1-methyl-1H-pyrazol-5-yl)sulfonyl)propan-2-yl)-N-(1,2,3-thiadiazol-5-yl)piperidine-1-carboxamide]",+++ (+++ represents myosin activation value AC20 < 2 μM)
14,"CC(F)(C1CCN(C(=O)Nc2ccnnc2)CC1)S(=O)(=O)c1cccc(Cl)c1 (centres unmarked) [Compound 264, 4-(1-((3-chlorophenyl)sulfonyl)-1-fluoroethyl)-N-(pyridazin-4-yl)piperidine-1-carboxamide]",+++ (+++ represents myosin activation value AC20 < 2 μM)
15,"CC(C)(C1CCN(C(=O)Nc2ccncc2F)CC1)S(=O)(=O)c1cccc(F)c1 [Compound 177, 4-(2-((3-fluorophenyl)sulfonyl)propan-2-yl)-N-(3-fluoropyridin-4-yl)piperidine-1-carboxamide]",+ (+ represents myosin activation value AC20 > 5 μM)
16,"Cc1cc(C#N)ccc1S(=O)(=O)C(F)(F)C1CCN(C(=O)Nc2ccnnc2)CC1 [Compound 52, 4-(((4-cyano-2-methylphenyl)sulfonyl)difluoromethyl)-N-(pyridazin-4-yl)piperidine-1-carboxamide]",++ (++ represents myosin activation value AC20 from 2 μM-5 μM)
17,"O=C(Nc1ccnnc1)N1CCC(C2(S(=O)(=O)c3cc(F)cc(F)c3)CCC2)CC1 [Compound 167, 4-(1-((3,5-difluorophenyl)sulfonyl)cyclobutyl)-N-(pyridazin-4-yl)piperidine-1-carboxamide]",+++ (+++ represents myosin activation value AC20 < 2 μM)
18,"COc1ccc(NC(=O)N2CCC(C(C)(C)S(=O)(=O)c3cccc(F)c3)CC2)cn1 [Compound 161, 4-(2-((3-fluorophenyl)sulfonyl)propan-2-yl)-N-(6-methoxypyridin-3-yl)piperidine-1-carboxamide]",+ (+ represents myosin activation value AC20 > 5 μM)
19,"C[C@H](O)c1cc(NC(=O)N2CCC(C(F)(F)S(=O)(=O)c3cn(C)nc3C(F)F)CC2)ccn1 [Compound 99, (S)-4-(((3-(difluoromethyl)-1-methyl-1H-pyrazol-4-yl)sulfonyl)difluoromethyl)-N-(2-(1-hydroxyethyl)pyridin-4-yl)piperidine-1-carboxamide]",+ (+ represents myosin activation value AC20 > 5 μM)
20,"CC(F)(C1CCN(C(=O)Nc2ccnnc2)CC1)S(=O)(=O)c1cccc(C#N)c1 (centres unmarked) [Compound 265, 4-(1-((3-cyanophenyl)sulfonyl)-1-fluoroethyl)-N-(pyridazin-4-yl)piperidine-1-carboxamide]",+++ (+++ represents myosin activation value AC20 < 2 μM)
21,"Cn1cc(S(=O)(=O)C(C)(F)C2CCN(C(=O)Nc3ccon3)CC2)c(Cl)n1 (centres unmarked) [Compound 19, 4-(1-((3-Chloro-1-methyl-1H-pyrazol-4-yl)sulfonyl)-1-fluoroethyl)-N-(isoxazol-3-yl)piperidine-1-carboxamide]",+ (+ represents myosin activation value AC20 > 5 μM)
22,"Cc1nocc1NC(=O)N1CCC(C(C)(F)S(=O)(=O)c2cccc(F)c2)CC1 (centres unmarked) [Compound 238, 4-(1-fluoro-1-((3-fluorophenyl)sulfonyl)ethyl)-N-(3-methylisoxazol-4-yl)piperidine-1-carboxamide]",+ (+ represents myosin activation value AC20 > 5 μM)
23,"Cn1cc(S(=O)(=O)C(C)(C)C2CCN(C(=O)Nc3ccnnc3)CC2)c(C(F)F)n1 [Compound 168, 4-(2-((3-(difluoromethyl)-1-methyl-1H-pyrazol-4-yl)sulfonyl)propan-2-yl)-N-(pyridazin-4-yl)piperidine-1-carboxamide]",+++ (+++ represents myosin activation value AC20 < 2 μM)
24,"CC(F)(C1CCN(C(=O)Nc2ccno2)CC1)S(=O)(=O)c1cccc(F)c1 (centres unmarked) [Compound 11, 4-(1-Fluoro-1-((3-fluorophenyl)sulfonyl)ethyl)-N-(isoxazol-5-yl)piperidine-1-carboxamide]",++ (++ represents myosin activation value AC20 from 2 μM-5 μM)
25,"Cc1ncc(NC(=O)N2CCC(C(C)(C)S(=O)(=O)c3cn(C)nc3C(F)F)CC2)cn1 [Compound 143, 4-(2-((3-(difluoromethyl)-1-methyl-1H-pyrazol-4-yl)sulfonyl)propan-2-yl)-N-(2-methylpyrimidin-5-yl)piperidine-1-carboxamide]",+ (+ represents myosin activation value AC20 > 5 μM)
26,"COc1ccccc1S(=O)(=O)C(C)(C)C1CCN(C(=O)Nc2ccncc2)CC1 [Compound 216, 4-(2-((2-methoxyphenyl)sulfonyl)propan-2-yl)-N-(pyridin-4-yl)piperidine-1-carboxamide]",+++ (+++ represents myosin activation value AC20 < 2 μM)
27,"Cn1nccc1S(=O)(=O)C(C)(C)C1CCN(C(=O)Nc2ccnnc2)CC1 [Compound 192, 4-(2-((1-methyl-1H-pyrazol-5-yl)sulfonyl)propan-2-yl)-N-(pyridazin-4-yl)piperidine-1-carboxamide]",+++ (+++ represents myosin activation value AC20 < 2 μM)
28,"CC(F)(C1CCN(C(=O)Nc2ccnnc2)CC1)S(=O)(=O)c1cc(F)cc(F)c1 (centres unmarked) [Compound 275, 4-(1-((3,5-difluorophenyl)sulfonyl)-1-fluoroethyl)-N-(pyridazin-4-yl)piperidine-1-carboxamide]",+++ (+++ represents myosin activation value AC20 < 2 μM)
29,"Cn1nccc1S(=O)(=O)C(C)(F)C1CCN(C(=O)Nc2cnns2)CC1 (centres unmarked) [Compound 267, 4-(1-fluoro-1-((1-methyl-1H-pyrazol-5-yl)sulfonyl)ethyl)-N-(1,2,3-thiadiazol-5-yl)piperidine-1-carboxamide]",+++ (+++ represents myosin activation value AC20 < 2 μM)

# Source: patent US11123337B2, “4-methylsulfonyl-substituted piperidine urea compounds” (MYOKARDIA, INC., priority 2015, dated 2021)
